This passage reports IC50 and pA2 values results from patent US5541229A, “Benzimidazoles and medicaments containing these compounds” (Dr. Karl Thomae GmbH, priority 1989, dated 1996).

Structures are written as SMILES. Like-named read-outs stand apart in the source and are kept apart here.

For test [1], the target named is T1, bovine adrenal gland receptor preparations (Bos taurus, UniProt P25104).
T1 construct: aliquots of a membrane preparation of bovine adrenal cortex in tris buffer; from tissue; host or cells: bovine adrenal cortex membranes
T1 sequence (P25104 1-359): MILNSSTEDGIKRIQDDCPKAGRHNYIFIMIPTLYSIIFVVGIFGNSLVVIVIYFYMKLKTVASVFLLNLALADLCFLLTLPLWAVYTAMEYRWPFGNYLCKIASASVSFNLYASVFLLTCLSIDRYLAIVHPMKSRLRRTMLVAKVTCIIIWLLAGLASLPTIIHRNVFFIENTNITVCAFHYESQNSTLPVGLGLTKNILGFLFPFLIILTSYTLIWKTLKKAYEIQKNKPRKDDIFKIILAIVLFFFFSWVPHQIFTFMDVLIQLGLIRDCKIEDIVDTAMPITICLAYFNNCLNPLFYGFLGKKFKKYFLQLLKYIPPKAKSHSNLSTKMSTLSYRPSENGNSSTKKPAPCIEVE
The test is described as follows: inhibition of angiotensin II bonding to bovine adrenal gland receptor preparations. Format: binding. The method, then:
After 45 minutes the incubation was stopped by rapid filtration through glass fibre filters. The radioactivity associated with the filter was determined in a […] at a counting efficiency of 80%.

The next test concerns the target T2, angiotensin II (Rattus norvegicus, UniProt P25095).
T2 construct: The measured parameter is the increase in the arterial blood pressure; from tissue; host or cells: whole anaesthetised rat with destroyed spine, in vivo (vascular receptors)
T2 sequence (P25095 1-359): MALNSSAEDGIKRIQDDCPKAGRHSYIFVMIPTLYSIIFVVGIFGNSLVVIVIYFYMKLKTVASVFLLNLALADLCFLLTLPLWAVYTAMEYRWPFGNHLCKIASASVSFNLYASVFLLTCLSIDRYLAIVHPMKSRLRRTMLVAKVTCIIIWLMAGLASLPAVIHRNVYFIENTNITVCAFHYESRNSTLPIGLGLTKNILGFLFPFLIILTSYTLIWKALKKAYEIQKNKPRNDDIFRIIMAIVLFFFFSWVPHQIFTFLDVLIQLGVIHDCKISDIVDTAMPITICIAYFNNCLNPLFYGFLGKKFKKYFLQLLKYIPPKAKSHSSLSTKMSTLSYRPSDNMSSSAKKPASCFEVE
The test is described as follows: displacement of angiotensin II dose-effect curves (increase in arterial blood pressure) in rats, pA2. In kind it is in vivo. The conditions noted are these: average, angiotensin II antagonism in rats, 10, 20 and 30 mg/kg i.v. The protocol:
a) rats (male, 180-220 g) are anaesthetised using sodium hexobarbital (150 mg/kg i.p.). After the anaesthetic has taken effect, a tracheal cannula is inserted, the spine is destroyed in the animals and then they are immediately respirated artifically using a respiratory pump. The arterial blood pressure is recorded via a cannula in the carotid artery by means of a Bell & Howell pressure sensor. Substances are administered via a cannula in the jugular vein. Test substances are administered in three doses (10, 20 and 30 mg/kg i.v.), wherein one dose of substance is tested per animal. […] The measured parameter is the increase in the arterial blood pressure. These dose-effect graphs are compared with standard graphs for angiotensin II without test substances. A computer program determines the displacements to the right of the dose-effect graphs for angiotensin II as a result of test substances, and calculates corresponding pA2 values for the test substances.

One may read the IC50 as the point on the concentration scale where inhibition reaches its midpoint. Consider `CCCCCCNC(=O)N(CCc1ccccc1)c1ccc2nc(CCCC)n(Cc3ccc(-c4ccccc4C(=O)O)cc3)c2c1` [AA], for which the IC50 in test [1] is 100 nM.

Regarding `CCCCCCNC(=O)N(Cc1ccccc1)c1ccc2nc(CCCC)n(Cc3ccc(-c4ccccc4C(=O)O)cc3)c2c1` [A], at angiotensin II, the pA2 values is listed as 7,23. For the same compound, the midpoint of inhibition in test [1], the IC50, lay at 29 nM.

Consider `CCCCc1nc2ccc(NC(=O)C3CCCC3)cc2n1Cc1ccc(-c2ccccc2C(=O)O)cc1` [BB], for which 46 nM corresponded to half-maximal inhibition in test [1] (IC50).

Consider `CCCCc1nc2ccc(N(CCCC)C(=O)NC3CCCCC3)cc2n1Cc1ccc(-c2ccccc2C(=O)O)cc1` [B], for which the pA2 values at angiotensin II is listed as 6,63. The IC50 in test [1] stood at 29 nM.

On to `CCCCc1nc2ccc(N3C(=O)[C@H]4CCCC[C@H]4C3=O)cc2n1Cc1ccc(-c2ccccc2-c2nn[nH]n2)cc1` [CC], for which the pA2 values at angiotensin II is given as 8,54. For the same compound, 1000 nM corresponded to half-maximal inhibition in test [1] (IC50).

Regarding `CCCCc1nc2ccc(N(CC)C(=O)NC3CCCCC3)cc2n1Cc1ccc(-c2ccccc2C(=O)O)cc1` [C], the pA2 values on angiotensin II is listed as 6,36. Also, the IC50 in test [1] is 31 nM.

In the case of `CCCCc1nc2ccc(N(CCC)C(=O)NC3CCCCC3)cc2n1Cc1ccc(-c2ccccc2C(=O)O)cc1` [D], the pA2 values on angiotensin II is listed as 6,59. In test [1], the IC50 stood at 44 nM.

As to `CCCCc1nc2ccc(N(C)C(=O)NC3CCCCC3)cc2n1Cc1ccc(-c2ccccc2C(=O)O)cc1` [E], on angiotensin II, the pA2 values was 7,34. Also, the IC50 in test [1] worked out at 46 nM.

On to `CCCCCN(C(=O)NC1CCCCC1)c1ccc2nc(CCCC)n(Cc3ccc(-c4ccccc4C(=O)O)cc3)c2c1` [G], for which the pA2 values on angiotensin II was 6,89. The compound also came in with an IC50 in test [1] of 46 nM.

With `CCCCc1nc2ccc(N(Cc3ccccc3)C(=O)NC)cc2n1Cc1ccc(-c2ccccc2C(=O)O)cc1` [H], the pA2 values at angiotensin II was 6,48. For the same compound, inhibition in test [1] was half-maximal at 51 nM (IC50).

As to `CCCCc1nc2ccc(N3Cc4ccccc4C3=O)cc2n1Cc1ccc(-c2ccccc2C(=O)O)cc1` [I], the pA2 values at angiotensin II was 6,12. In test [1], this compound gave an IC50 of 51 nM.

`CCCCc1nc2ccc(N(Cc3ccccc3)C(=O)NC3CCCCC3)cc2n1Cc1ccc(-c2ccccc2C(=O)O)cc1` [J]: the pA2 values at angiotensin II is 7,38. In test [1], the IC50 was 54 nM.

`CCCCC(=O)Nc1ccc2nc(CCCC)n(Cc3ccc(-c4ccccc4C(=O)O)cc3)c2c1` [K]: the pA2 values on angiotensin II is 6,38. The compound also had an IC50 in test [1] of 57 nM.

Consider `CCCCc1nc2ccc(NC(=O)CC)cc2n1Cc1ccc(-c2ccccc2C(=O)O)cc1` [L], for which, on angiotensin II, the pA2 values is given as 6,04. The IC50 in test [1] amounted to 58 nM.

Regarding `CCCCc1nc2ccc(NC(=O)C(C)C)cc2n1Cc1ccc(-c2ccccc2C(=O)O)cc1` [M], at angiotensin II, the pA2 values was 6,87. Further, the IC50 in test [1] was 61 nM.

In the case of `CCCCc1nc2ccc(NC(=O)NC3CCCCO3)cc2n1Cc1ccc(-c2ccccc2C(=O)O)cc1` (stereo not drawn) [N], the pA2 values on angiotensin II is given as 7,02. Besides, the 50% inhibitory concentration (IC50) in test [1] turned out to be 65 nM.

For the compound `CCCCNC(=O)Nc1ccc2nc(CCCC)n(Cc3ccc(-c4ccccc4C(=O)O)cc3)c2c1` [O], the pA2 values at angiotensin II is 6,46. Also, the IC50 in test [1] was determined as 65 nM.

Turning to `CCCCc1nc2ccc(NC(=O)CCC)cc2n1Cc1ccc(-c2ccccc2C(=O)O)cc1` [P], the pA2 values at angiotensin II was 6,46. This compound displayed an IC50 in test [1] of 67 nM.

For `CCCCc1nc2ccc(N(Cc3ccccc3)C(=O)OCC)cc2n1Cc1ccc(-c2ccccc2C(=O)O)cc1` [Q], at angiotensin II, the pA2 values is 6,83. Also, the IC50 in test [1] worked out at 68 nM.

In the case of `CCCCc1nc2ccc(NC(=O)N(C)C)cc2n1Cc1ccc(-c2ccccc2C(=O)O)cc1` [R], the pA2 values at angiotensin II was 7,16. The same compound showed an IC50 in test [1] of 72 nM.

Take `CCCCCCN(C(=O)NC1CCCCC1)c1ccc2nc(CCCC)n(Cc3ccc(-c4ccccc4C(=O)O)cc3)c2c1` [S]: at angiotensin II, the pA2 values is 6,69. In test [1], this compound returned an IC50 of 72 nM.

On to `CCCCc1nc2ccc(NC(=O)NCCCCCO)cc2n1Cc1ccc(-c2ccccc2C(=O)O)cc1` [T], for which the pA2 values on angiotensin II was 7,20. This compound also displayed an IC50 in test [1] of 76 nM.

Turning to `CCCCCN(C(=O)NC)c1ccc2nc(CCCC)n(Cc3ccc(-c4ccccc4C(=O)O)cc3)c2c1` [U], the pA2 values on angiotensin II is on record as 7,20. In test [1], the half-maximal inhibitory concentration (IC50) is 79 nM.

In the case of `CCCCc1nc2ccc(NC(=O)C3CCCCC3)cc2n1Cc1ccc(-c2ccccc2C(=O)O)cc1` [V], the pA2 values on angiotensin II is recorded as 7,26. The compound also came in with an IC50 in test [1] (50% inhibition of the specific 125I-angiotensin II (50 pM) bonding, bovine adrenal cortex membranes, 45 minutes) of 84 nM.

`CCCCNC(=O)N(C)c1ccc2nc(CCCC)n(Cc3ccc(-c4ccccc4C(=O)O)cc3)c2c1` [W]: the pA2 values on angiotensin II is reported as 6,28. This compound registered an IC50 in test [1] of 86 nM.

With `CCCCc1nc2c(C)ccc(O)c2n1Cc1ccc(-c2ccccc2-c2nn[nH]n2)cc1` [X], the pA2 values at angiotensin II is 6,57. The compound also displayed an IC50 in test [1] of 99 nM.

Take `CCCCc1nc2ccc(N3C(=O)[C@H]4CCCC[C@H]4C3=O)cc2n1Cc1ccc(-c2ccccc2C(=O)O)cc1` [Y]: the pA2 values on angiotensin II is listed as 6,97. The compound further registered an IC50 in test [1] of 150 nM.

With `CCCCc1nc2ccc(N(Cc3ccccc3)C(=O)N(C)C)cc2n1Cc1ccc(-c2ccccc2C(=O)O)cc1` [Z], at angiotensin II, the pA2 values was 7,15. Further, inhibition in test [1] was half-maximal at 133 nM (IC50).
